Measurements from PubChem BioAssay (NCI).
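Interpolation was linear, between the two tested concentrations surrounding the appropriate level; five concentrations were tested over 48 hours in 96-well plates. The concentration for 50% growth inhibition is given as GI50. TGI: total growth inhibition.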

What was measured:
Experiment in all cases: NCI-60 cell line screen, 48 h
SF-295 CNS = test system: SF-295 CNS
HOP-92 NSCLC = test system: HOP-92 NSCLC
OVCAR-3 ovarian = test system: OVCAR-3 ovarian
HT29 colon = test system: HT29 colon
SF-539 CNS = test system: SF-539 CNS
SK-MEL-28 melanoma = test system: SK-MEL-28 melanoma
M14 melanoma = test system: M14 melanoma
NCI-H23 lung = test system: NCI-H23 lung
T-47D breast = test system: T-47D breast
NCI/ADR-RES ovarian = test system: NCI/ADR-RES ovarian

Row | Structure (SMILES) | TGI (SF-295 CNS) [µM] | TGI (HOP-92 NSCLC) [µM] | TGI (OVCAR-3 ovarian) [µM] | TGI (HT29 colon) [µM] | TGI (SF-539 CNS) [µM] | TGI (SK-MEL-28 melanoma) [µM] | TGI (M14 melanoma) [µM] | TGI (NCI-H23 lung) [µM] | TGI (T-47D breast) [µM] | TGI (NCI/ADR-RES ovarian) [µM] | GI50 (HT29 colon) [µM] | GI50 (SK-MEL-28 melanoma) [µM] | GI50 (M14 melanoma) [µM] | GI50 (T-47D breast) [µM] | GI50 (SF-295 CNS) [µM] | GI50 (NCI/ADR-RES ovarian) [µM] | GI50 (OVCAR-3 ovarian) [µM] | GI50 (SF-539 CNS) [µM] | GI50 (NCI-H23 lung) [µM] | GI50 (HOP-92 NSCLC) [µM]
1 | CCC1(O)C(=O)OCc2c1cc1n(c2=O)Cc2c-1nc1ccccc1c2OC (stereo not drawn) | 11.3 | 3.57 | 5.85 | > 87.1 | 0.0414 | > 53.8 | 0.445 | 0.0749 | – | – | – | – | – | – | – | – | – | – | – | –
2 | Cn1c(O)c(C=N)c(=O)n(C)c1=O | > 100 | > 100 | > 100 | > 100 | – | > 100 | > 100 | > 100 | – | – | – | – | – | – | – | – | – | – | – | –
3 | CC1=C(C)C(=O)c2c(cc3c4ccccc4ccn23)C1=O | > 100 | – | > 100 | > 100 | > 100 | > 100 | > 100 | > 100 | – | – | – | – | – | – | – | – | – | – | – | –
4 | Nc1ccn(C2OC(CO[P+](=O)OC3C(CO[P+](=O)OC4C(CO[P+](=O)OC5C(CO[P+](=O)OC6C(CO[P+](=O)OC7C(CO[P+](=O)OC8C(CO[P+](=O)OC9C(CO[P+](=O)OC%10C(CO[P+](=O)OC%11C(CO)OC(n%12ccc(N)nc%12=O)C%11(F)F)OC(n%11ccc(N)nc%11=O)C%10(F)F)OC(n%10ccc(N)nc%10=O)C9(F)F)OC(n9ccc(N)nc9=O)C8(F)F)OC(n8ccc(N)nc8=O)C7(F)F)OC(n7ccc(N)nc7=O)C6(F)F)OC(n6ccc(N)nc6=O)C5(F)F)OC(n5ccc(N)nc5=O)C4(F)F)OC(n4ccc(N)nc4=O)C3(F)F)C(O)C2(F)F)c(=O)n1 (stereo not drawn) | > 100 | – | > 100 | > 100 | – | > 100 | 0.27 | – | > 100 | > 100 | 1.32 | > 100 | 0.0397 | – | – | – | – | – | – | –
5 | O=C1OCC2=C1C(c1ccccc1)c1cc3c(cc1N2CCO)CCC3 (stereo not drawn) | – | – | 0.0975 | – | 0.966 | > 25 | 0.351 | > 9.91 | > 25 | 0.139 | 0.0878 | 0.168 | 0.0722 | 0.0922 | 0.0677 | 0.0521 | 0.0467 | 0.0732 | 0.106 | –
6 | CCOC(=O)NC(=O)c1cn(CCCCCCCCCCC(=O)N2CCN(CCn3cc(C(=O)NC(=O)OCC)c(=O)[nH]c3=O)CC2)c(=O)[nH]c1=O | > 100 | > 100 | > 100 | > 100 | > 100 | > 100 | > 100 | > 100 | – | – | – | – | – | – | – | – | – | – | – | –
7 | CC(/C=C/C=C/C=C/C=C/C=C/C(O)=C1/C(=O)C(CCC(=O)O)N(C)C1=O)=C\C(C)C(OC1CC(O)C(O)C(C)O1)C(C)C (stereo not drawn) | 14.8 | 8.66 | 5.12 | 14 | 6.3 | 10.1 | 15.2 | 9.75 | – | 50.2 | – | – | – | – | – | – | – | – | – | –
8 | Cn1nc(-c2ccccc2)c(C(=O)/C=C/c2ccccc2)c(N2CCCCC2)c1=O | – | 86.7 | – | 69 | > 100 | 62.8 | > 100 | > 100 | – | – | – | – | – | – | – | – | – | – | – | –
9 | S=C1CNC(=S)CN1 | > 100 | > 100 | > 100 | > 100 | > 100 | > 100 | > 100 | – | – | – | – | – | – | – | – | – | – | – | – | –
10 | CCC[CH2][Sn]([CH2]CCC)([O]C(=O)c1cc(OC)c(OC)c(OC)c1)[O]C(=O)c1cc(OC)c(OC)c(OC)c1 | 3.19 | – | 2.59 | 3.33 | 2.12 | 1.99 | 2.83 | 1.56 | – | – | 1.69 | 0.633 | 1.42 | – | 1.6 | – | 1.26 | 0.788 | 0.437 | –
11 | COC1OC(COCc2ccc(Cl)cc2)C(OCc2ccc(Cl)cc2)C1O (stereo not drawn) | 32.3 | 25.1 | 42.8 | 33.2 | 30.3 | 31.4 | 31 | 31.9 | – | – | – | – | – | – | – | – | – | – | – | –
12 | O=[N+]([O-])c1ccc(Oc2cccnc2)c([N+](=O)[O-])c1 | > 100 | 13 | 6.99 | 13.8 | 12.1 | 23.9 | 8.61 | 18.7 | 30.1 | – | 3.5 | 9.49 | 2.74 | 7.3 | 18.6 | – | 2.75 | 3.21 | 4.28 | 2.29
13 | CCCCCCCCCCCCCCCCc1c(C(=O)OC)[nH]c(=S)[nH]c1=O | > 50 | 41 | > 50 | > 50 | > 50 | > 50 | > 50 | > 50 | – | – | – | – | – | – | – | – | – | – | – | –
14 | N#Cc1cc(-c2ccccc2)[nH]c1-c1nccc2ccccc12 | > 100 | – | > 100 | > 100 | > 100 | > 100 | 84.7 | > 100 | 45.2 | > 100 | 30.5 | 26.5 | 14.9 | 3.06 | 7.07 | 6.44 | 21.9 | 32.7 | 6.31 | –
15 | CCCCN(CCCC)c1cc(C(=O)CCCCCN)c2ccccc2n1 | 3.85 | 6.32 | 3.79 | 3.57 | 3.41 | 3.37 | 3.29 | 3.8 | – | 3.61 | 2 | 1.91 | 1.83 | – | 1.86 | 1.78 | 2.02 | 1.95 | 1.89 | 2.51
16 | CCOC(=O)CC(=O)N(c1ccc(OC)cc1)C(C(=O)OC)c1ccccc1 (stereo not drawn) | > 100 | – | > 100 | > 100 | > 100 | > 100 | > 100 | > 100 | > 100 | > 100 | – | – | – | – | – | – | – | – | – | –
17 | CCOC(=O)/C(=C/c1cc(OC)ccc1OC)CC(=O)O | > 100 | > 100 | > 100 | > 100 | > 100 | > 100 | > 100 | > 100 | – | – | – | – | – | – | – | – | – | – | – | –
18 | O=S1Cc2ccccc2CS1 (stereo not drawn) | > 100 | 34.1 | 29 | 30.1 | 24.5 | 28.3 | 28.3 | 28.3 | – | – | – | – | – | – | – | – | – | – | – | –
19 | CC(=O)NC(ON1C(=O)COc2ccccc21)C(Cl)(Cl)Cl (stereo not drawn) | > 100 | > 100 | > 100 | > 100 | > 100 | > 100 | > 100 | > 100 | – | – | – | – | – | – | – | – | – | – | – | –
20 | Cc1ccc(NC(=O)C2C(=O)C(=O)N(c3ccc(C)cc3)C2=O)cc1 (stereo not drawn) | > 100 | > 100 | – | > 100 | > 100 | – | > 100 | > 100 | – | – | – | – | – | – | – | – | – | – | – | –
21 | COc1ccc(S(=O)(=O)Nc2cc(/C=C\c3cc(OC)c(OC)c(OC)c3)cc(OC)c2OC)cc1OC | 55.6 | 67.5 | > 100 | > 100 | 28.6 | 61.3 | > 100 | > 100 | > 100 | – | 0.485 | 3.27 | 0.419 | 27.2 | 0.47 | – | 0.418 | 0.518 | 3.31 | 0.207
22 | Clc1cccc(Cn2cc(Cc3cn(Cc4cccc(Cl)c4)c4ccccc34)c3ccccc32)c1 | > 100 | > 100 | > 100 | > 100 | > 100 | > 100 | > 100 | > 100 | > 100 | – | > 100 | > 100 | > 100 | > 100 | 86.2 | – | > 100 | > 100 | > 100 | 22.5
23 | Nc1ccccc1S(=O)c1ccccc1 (stereo not drawn) | > 100 | > 100 | > 100 | > 1 | > 100 | > 100 | > 100 | > 100 | – | – | – | – | – | – | – | – | – | – | – | –
24 | CC(=O)c1cc2c3c(c1)c1cc4c(cc1c(=O)n3CC2)OCO4 | > 100 | > 100 | > 100 | > 100 | > 100 | > 100 | > 100 | > 100 | – | – | – | – | – | – | – | – | – | – | – | –
25 | Cc1cc(=O)[nH]c(CNC(=O)c2cccc3ccccc23)n1 | > 100 | > 100 | > 100 | > 100 | > 100 | > 100 | > 100 | > 100 | – | – | – | – | – | – | – | – | – | – | – | –
26 | c1ccc2c(c1)nnn1c3cnccc3nc21 | > 100 | 67 | 55.8 | 80.3 | 97.2 | > 100 | > 100 | 69.4 | – | – | – | – | – | – | – | – | – | – | – | –
27 | CC1C(=O)CCC1C(Sc1ccccc1)(Sc1ccccc1)Sc1ccccc1 (stereo not drawn) | > 100 | 81.8 | > 100 | > 100 | 35.1 | > 100 | > 100 | > 100 | – | – | – | – | – | – | – | – | – | – | – | –
28 | COC(=O)C1C2CC3C(OC(=O)C31)C2I (stereo not drawn) | > 100 | > 100 | > 100 | > 100 | > 100 | > 10 | > 100 | > 100 | – | – | – | – | – | – | – | – | – | – | – | –
29 | O=[n+]1cnn([O-])c2ccccc21 | > 100 | – | – | 40.4 | 55.7 | > 100 | 64 | > 100 | 29.7 | > 100 | – | – | – | – | – | – | – | – | – | –
